*1 amine or outer side, *2 acyl side, *3 side chain or, on linkers, in order; H or OH if unused. Where a SMILES comes first, the peptide text is derived from it. Bridges are numbered along the chain shown (N, C = ends). Where no end group is shown, it is not given here. [ ]: non-standard residue; d: D form. ξ: configuration not given here. ξGly(dodecyl) = CCCCCCCCCCCCC(N)C(=O)O; mXylylene = c1cc(C[*:1])cc(C[*:2])c1
Assays:
[1] = Localization in spinal cord after injection at sciatic nerve defect; conditions: 1 mg injected into site of sciatic nerve defect, 48 hours
Experimental: FIG. 5. […] A 0.7 cm coronal spinal cord section from the […] region of a Sprague Dawley (SD) male rat showing the surrounding nuclei of the sciatic nerve, harvested 48 hours after 1 mg (1 mg/mL) of peptide was injected into the sight of a mid-thigh sciatic nerve defect injury.
Dosing and Procedure. […] After 48 hours, the animal was sacrificed and the spinal cord from the L4 to L6 region was sectioned coronally.
Immunohistochemistry. Hoechst 333429 (Calbiochem) dye was used to visualize the nucleus, and FLAG antibody (Sigma-Aldrich) was used to visualize the RPP. Images were taken with a light microscope.

NBFL cells = experiment: BDNF, NGF and KV4.3 transcript levels in NBFL cells dosed with linear or cyclic RPP; format: cell-based; conditions: 1 μM
Experimental: FIG. 9. Comparison of linear and cyclic RPP. […] Efficacy on was assessed by measuring changes in (A) BDNF, (B) NGF, and (C) KV4.3 transcript levels. N=1
Plasmids. RPP (SEQ ID NOS: 2 and 4): One segment of this construct containing T7 promoter, CPP, and His tag was synthesized as a gBlock (Table 8) by IDT and amplified with primers described in Table 8. The PCR reaction (20 μL) was initially heated at 95° C. for 2.5 min followed by 30 cycles of denaturation at 94° C. for 15 sec., annealing at 55° C. for 15 sec., and extension at 72° C. for 30 seconds. Following amplification, PCR fragment was gel-purified by the QIAGEN gel-band purification kit according to manufacturer's protocol.
In vitro Expression. RPP (Table 8) or CP (Table 9) were expressed in vitro using the PURE Express In Vitro Protein Synthesis Kit (New England Biolabs). The RPP (SEQ ID NOS: 2 and 4) or CP sequence was amplified from the RPP (SEQ ID NOS: 2 and 4) or CP expression constructs (Table 8 and 9) with primers listed in Table 8, and gel-purified by the QIAGEN gel-band purification kit. The PCR reaction (20 μL) was initially heated at 95° C. for 2.5 min followed by 30 cycles of denaturation at 94° C. for 15 sec., annealing at 55° C. for 15 sec., and extension at 72° C. for 30 sec. Then, 15 μL of the purified PCR fragment was mixed with 10 μL of Solution A and 7.5 μL of Solution B of the PURE Express In Vitro Protein Synthesis Kit (New England Biolabs) and incubated 2 hours at 37° C. Next, 2 μL of DNAse I was added and incubated for 20 min at 37° C.
Purification. RPP (SEQ ID NOS: 2 and 4) and CP: The final solution from the in vitro expression step was diluted to 100 μL and filtered through the Amicon Ultracel 0.5 mL-100K columns (Sigma) to remove ribosomes. The flow through was added to 100 μL of washed Ni-NTA Magnetic Agarose Beads (Qiagen) and was washed with wash buffer as described by the manufacturer.
Cyclization. The RPP (SEQ ID NO: 2) or was cyclized by mixing the beads with 500 μL of the cyclization solution which was made by mixing 2.65 mL of the 1.33×PBS (66.5 mM phosphate buffer, 400 mM NaCl) with 1.32 mL of dibromo-m-xylene solution in acetonitrile (2.5 mg/mL). Following incubation with the cyclization solution beads were washed once with wash buffer I (PBS with 25 mM imidazole, 0.5 μL/mL of mercaptoethanol), once with wash buffer II (PBS with 25 mM imidazole, 0.5 mM TCEP), twice with wash buffer III (PBS with 25 mM imidazole) and eluted with 50 μL of the elution buffer (PBS with 500 mM imidazole). Imidazole was removed using Bio-Rad Micro Bio-Spin Chromatography columns.
Dosing and Cell Culture. NBFL cells (FIG. 9) grown in 6 well were dosed with 1 μM of linear (SEQ ID NO: 2) or cyclic (SEQ ID NO: 2) RPP (Table 8) or control peptide (Table 9) for 16 or 48 hours.
After dosing, cells were lysed and assessed for BDNF, NGF, and KV4.3 mRNA levels (FIG. 9). All of the primers used have been described except for NGF: forward: 5′[…]3′ (SEQ ID NO: 338) and reverse 5′[…]3′ (SEQ ID NO: 339).

[2] = tested on: iPSCs (neural stem cells (NSC)-NL5); experiment: Neuronal differentiation of iPSC NSC-NL5 (MAP2, TUJ1 normalized to DAPI); format: cell-based, human; conditions: 7 days
Experimental: FIG. 11. iPSCs (neural stem cells (NSC)-NL5) were dosed with one of the RPP sequences (3 μM) or water control shown below. After 7 days in culture, cells were assessed for neuronal differentiation using the Microtubule Associated Protein 2 (MAP2) neuronal marker (normalized to DAPI). Media and variants were replaced on Day 3. MAP2 levels are relative to control in the bar graph (standard deviation n=4).
FIG. 12. iPSCs (neural stem cells (NSC)-NL5) were with 1 μM RPP (SEQ ID NO. 9) or water control. After 7 days in culture, cells were assessed for neuronal differentiation using neuronal markers TUJ1 (class III beta-tubulin) and MAP2 (both normalized to DAPI). Media and RPP were replaced on Day 3. (standard deviation, n=6).
FIG. 13. iPSCs (neural stem cells (NSC)-NL5) were with 1 μM RPP (SEQ ID NO. 13) or water control. After 7 days in culture, cells were assessed for neuronal differentiation using neuronal markers TUJ1 and MAP2 (both normalized to DAPI). Media and RPP were replaced on Day 3. (standard deviation, n=6).
Approach 2: Induced pluripotent stem cells (neural stem cells (NSC)-NL5) differentiate after 7 Days of RPP dosing (FIG. 11 (SEQ ID NOS: 5-11, 3 μM); FIG. 12 (SEQ ID NO: 9, 1 μM) FIG. 13 (SEQ ID NO: 13 (FIG. 27), 1 μM)) using the following “Neuron to Blank” protocol: • 1. 24 well culture plates (Black Visiplate) were coated with Matrigel ([…] for 30 minutes at 37° C.). • 2. NSCs-NLS (see media below) were plated at 0.5×10^5 per well.
• 3. After 24 hours (cells should be >70% confluent), the media was changed to neuronal differentiation medium (below) with various concentrations of test peptides or water control added (FIGS. 11, 12, and 13, Table 14). The neuronal differentiation medium, with new test peptides and control, was changed every 2 days for 5 days.
• 4. On Day 7 cells were fixed 4% formaldehyde in 1×PBS for 30 minutes. • 5. Cells were immunolabeled with mouse anti-TUJ1 (1:1000) and rabbit anti-Map2 (1:500) overnight. Then label with 2nd antibody (anti-mouse488, anti-rabbit568 and DAPi) for 1 hour. • 6. Data was collected on a BioTek plate reader • a. Dapi: Excitation 360/40; Emission 460/20, Gain 35; • b. Alexa 488: Excitation 485/20; Emission 528/20, Gain 50; • c. Alexa 568: Excitation 560/20; Emission 620/10, Gain 75).

L5 DRGs = experiment: qRT-PCR mRNA expression in ex vivo cultured L5 DRGs; format: cell-based, Sprague Dawley rat; conditions: DRG; 1 μM; 48 h
Experimental: FIG. 15. […] Error bars =standard error of the mean.
L5 DRGs were dissected from adult male rats and plated in 12-well plates pre-coated with poly-D-Lysine (PDL) and laminin in a minimal volume of medium (250 ul Neurobasal™-A medium (GIBCO) supplemented with B27 (GIBCO), 50 ng/ml NGF (Sigma-Aldrich) and penicillin streptomycin) to allow attachment to the culture plate. One day after plating, DRGs were incubated with RPP (SEQ. ID NO: 12: 1 μM, 3 μM or 10 μM in culture medium, FIGS. 14 and 16; SEQ ID NOS: 13 and 14: 3 μM, FIG. 15) for 48 h. For RNA expression analysis, DRGs were lysed in 300 μl of Qiazol in a 1.5 ml tube containing Bullet Blender Pink Beads using a Bullet Blender Tissue Homogenizer (NextAdvance). Total RNA was extracted using RNeasy Midi Kit (Qiagen) according to manufacturer's instructions. Purified RNA was quantified with NanoDrop 2000 (ThermoFIsher), and reverse transcription was run using High Capacity cDNA Reverse Transcription Kit (Applied Biosystems) and 2 ng/ul RNA per reaction. For qRT-PCR, 5 ul of cDNA (corresponding to 10 ng of RNA) were mixed with to 10 ul SsoAdvanced™ Universal SYBR® Green Supermix (BioRad) and 1 ul of each primer (final primer concentration 500 nM each). Reactions were run in triplicates in a QuantStudio™ 7 Flex Real-Time PCR system (Applied Biosystems). Amplification data were analyzed using the comparative cycle threshold (ΔΔCt) method and β-actin as calibrator. Primers were as follows: β-actin: F-[…] (SEQ ID NO: 340), R-[…] (SEQ ID NO: 333); KV4.3: F-[…] (SEQ ID NO: 341), R-[…] (SEQ ID NO: 342); KV7.2 F-[…] AG (SEQ ID NO: 343), R-[…] (SEQ ID NO: 344); OPRM1: F-[…] (SEQ ID NO: 345), R-[…] (SEQ ID NO: 346).

[3] = tested on: mesenchymal progenitor cells (MPCs); experiment: BDNF and NGF mRNA expression in MPCs; format: cell-based, human; conditions: MPC, 3 μM
Experimental: FIG. 10. BDNF and NGF mRNA expression (normalized to actin) in mesenchymal progenitor cells (MPCs), from two patients, after a 48 hour incubation with water (Ctrl) or […] RPP (SEQ. ID NO: 9). mRNA levels are shown relative to control (standard deviation, n=2).
Mesenchymal progenitor cells (MPCs) (FIG. 10) from two patients were plated on 12 well plates and cultured in general medium (GM) (DMEM, 10% FBS, PSF). Lyophilized RPP (SEQ ID NO: 9) was dissolved in water at a concentration of 5 mM (1 mg/34.89, diluted in medium to 3 μM, and then incubated with the cell for 48 hours. The control was water.
MPCs were cultured as described in Gervasi et al., 2020^76.

CC(C)C[C@H](NC(=O)[C@H](CC(=O)O)NC(=O)[C@H](CCC(=O)O)NC(=O)[C@@H](NC(=O)[C@H](CCCCN)NC(=O)[C@H](CC(=O)O)NC(=O)[C@H](CC(=O)O)NC(=O)[C@H](CC(=O)O)NC(=O)[C@H](CC(=O)O)NC(=O)[C@H](CCCCN)NC(=O)[C@H](Cc1ccc(O)cc1)NC(=O)[C@H](CC(=O)O)NC(=O)[C@H](CCCCN)NC(=O)[C@H](CCC(N)=O)NC(=O)[C@H](C)NC(=O)[C@@H](N)CS)[C@@H](C)O)C(=O)N[C@@H](CCC(=O)O)C(=O)N1CCC[C@H]1C(=O)N1CCC[C@H]1C(=O)N[C@@H](CCC(=O)O)C(=O)N1CCC[C@H]1C(=O)N1CCC[C@H]1C(=O)N[C@@H](CC(C)C)C(=O)N1CCC[C@H]1C(=O)N[C@@H](CCCCN)C(=O)N[C@@H](CCC(=O)O)C(=O)N[C@@H](CC(N)=O)C(=O)NCC(=O)N[C@@H](CCCNC(=N)N)C(=O)N[C@@H](CCCCN)C(=O)N[C@@H](CCCCN)C(=O)N[C@@H](CCCNC(=N)N)C(=O)N[C@@H](CCCNC(=N)N)C(=O)N[C@@H](CCC(N)=O)C(=O)N[C@@H](CCCNC(=N)N)C(=O)N[C@@H](CCCNC(=N)N)C(=O)N[C@@H](CCCNC(=N)N)C(=O)NCC(=O)O [SEQ ID NO: 4] (H-CAQKDYKDDDDKTEDLEPPEPPLPKENGRKKRRQRRRG-OH; N-terminus and C-terminus assumed)
localization in nuclei of sciatic nerve neurons in spinal cord [1]: accumulates in the nuclei of the sciatic nerve in spinal cord | localization in nuclei of sciatic nerve neurons in spinal cord ([1]; listed as Linear RPP): accumulates in the nucleus of sciatic nerve tissue

MCTEDLEPPEPPLPKENCGSGSGRKKRRQRRRGGSGSLGHHHHHHGTGY (linker 2-18 via mXylylene (inferred)) [SEQ ID NO: 2, RPP-CPP-His, cyclized with dibromo-m-xylene]
Increase, BDNF mRNA (NBFL cells; 16 h): 5x | Increase, KV4.3 mRNA (NBFL cells; 16 h): 5x | Increase, NGF mRNA (NBFL cells; 16 h): 3.2x | Increase, BDNF mRNA (NBFL cells; 48 h): 2.3x | Increase, KV4.3 mRNA (NBFL cells; 48 h): 5x | Increase, NGF mRNA (NBFL cells; 48 h): 1.7x | Increase, BDNF mRNA (NBFL cells; 48 h, listed as Cyclic): 1.75× x | Increase, KV4.3 mRNA (NBFL cells; 48 h, listed as Cyclic): 25× x | Increase, NGF mRNA (NBFL cells; 48 h, listed as Cyclic): 1.87 x

SEQ ID NO: 13: CPP with poly arginine sequence and two 2-aminotetradecanoic acids integrated with the REST RI phosphomimetic ([dR][dR][ξGly(dodecyl)][dR][dR][ξGly(dodecyl)][dR][dR][dR][dR][dR][dK][dP][dL][dP][dP][dE][dP][dP][dE][dL][dD][dE])
increase of differentiation, MAP2 normalized to DAPI ([2]; 0.1 μM): 27% | increase of differentiation, TUJ1 normalized to DAPI ([2]; 0.1 μM): 60% | increase of differentiation, MAP2 normalized to DAPI ([2]; 1 μM): 2 times | increase of differentiation, TUJ1 normalized to DAPI ([2]; 1 μM): 3 times | Increase, Nav1.8 mRNA (L5 DRGs): 6x

rrrrwrrwwrrwrrnekplppeppeldet ([dR][dR][dR][dR][dW][dR][dR][dW][dW][dR][dR][dW][dR][dR][dN][dE][dK][dP][dL][dP][dP][dE][dP][dP][dE][dL][dD][dE][dT]) [SEQ ID NO: 9]
Increase, BDNF mRNA ([3]; 48 h): 2x | Increase, NGF mRNA ([3]; 48 h): 2.9x | increase of BDNF relative to water control ([3]; 48 hours): approximately 2 times | increase of NGF relative to water control ([3]; 48 hours): ~3 times

From patent US12180255B2, “Compositions and methods for derepressing RE1 silencing transcription factor target genes” (Alcamena Stem Cell Therapeutics, LLC, priority 2019, dated 2024)
